Experimental data: the NIST ThermoML archive (doi:10.1021/acs.jced.8b00132)
Where “and” joins values, the source holds several entries; their conditions need not be identical. Equal entries are not always repeated. ± gives the expanded uncertainty stated by the source.

Conditions: Gas

O=C(C(F)(F)C(F)(F)F)C(F)(C(F)(F)F)C(F)(F)F [dodecafluoro-2-methylpentan-3-one]
Conditions | thermal conductivity
473.94 K, 607 kPa, transient hot wire | 0.02517 ± 0.0015 W/m/K
473.94 K, 608 kPa, transient hot wire | 0.02532 ± 0.0016 W/m/K
473.94 K, 1476 kPa, transient hot wire | 0.02574 ± 0.00085 W/m/K
473.96 K, 1476 kPa, transient hot wire | 0.02582 ± 0.00085 W/m/K
473.98 K, 426 kPa, transient hot wire | 0.02562 ± 0.0016 W/m/K
473.99 K, 423 kPa, transient hot wire | 0.02558 ± 0.0016 W/m/K
474.04 K, 842 kPa, transient hot wire | 0.02513 ± 0.0015 W/m/K and 0.02512 ± 0.0015 W/m/K
474.09 K, 607 kPa, transient hot wire | 0.02539 ± 0.0016 W/m/K and 0.02526 ± 0.0015 W/m/K
474.16 K, 420 kPa, transient hot wire | 0.02565 ± 0.0016 W/m/K
474.16 K, 421 kPa, transient hot wire | 0.02567 ± 0.0016 W/m/K
474.19 K, 842 kPa, transient hot wire | 0.02519 ± 0.0015 W/m/K
474.2 K, 841 kPa, transient hot wire | 0.0252 ± 0.0015 W/m/K
474.27 K, 606 kPa, transient hot wire | 0.02536 ± 0.0016 W/m/K
474.28 K, 606 kPa, transient hot wire | 0.02535 ± 0.0016 W/m/K
474.31 K, 419 kPa, transient hot wire | 0.02566 ± 0.0016 W/m/K
474.32 K, 419 kPa, transient hot wire | 0.0257 ± 0.0016 W/m/K
499.37 K, 646 kPa, hot wire | 0.02778 ± 0.0013 W/m/K
499.37 K, 647 kPa, hot wire | 0.02768 ± 0.0013 W/m/K
499.4 K, 421 kPa, hot wire | 0.02708 ± 0.0013 W/m/K
499.41 K, 221 kPa, hot wire | 0.02654 ± 0.0013 W/m/K
499.41 K, 422 kPa, hot wire | 0.0269 ± 0.0013 W/m/K
499.42 K, 220 kPa, hot wire | 0.02629 ± 0.0012 W/m/K
499.45 K, 60 kPa, hot wire | 0.02624 ± 0.0012 W/m/K
499.45 K, 645 kPa, hot wire | 0.02749 ± 0.0013 W/m/K and 0.02782 ± 0.0013 W/m/K
499.47 K, 60 kPa, hot wire | 0.02576 ± 0.0012 W/m/K
499.49 K, 419 kPa, hot wire | 0.0267 ± 0.0013 W/m/K
499.5 K, 419 kPa, hot wire | 0.02667 ± 0.0013 W/m/K
499.5 K, 50295 kPa, transient hot wire | 0.06261 ± 0.0016 W/m/K
499.51 K, 219 kPa, hot wire | 0.02641 ± 0.0012 W/m/K
499.51 K, 220 kPa, hot wire | 0.02635 ± 0.0012 W/m/K
499.52 K, 4853 kPa, transient hot wire | 0.03589 ± 0.00085 W/m/K and 0.03595 ± 0.00086 W/m/K
499.52 K, 50304 kPa, transient hot wire | 0.06215 ± 0.0016 W/m/K
499.53 K, 644 kPa, hot wire | 0.02758 ± 0.0013 W/m/K
499.53 K, 2128 kPa, transient hot wire | 0.02828 ± 0.0017 W/m/K
499.54 K, 61 kPa, hot wire | 0.02593 ± 0.0012 W/m/K
499.55 K, 61 kPa, hot wire | 0.02598 ± 0.0012 W/m/K
499.55 K, 644 kPa, hot wire | 0.02734 ± 0.0013 W/m/K
499.56 K, 419 kPa, hot wire | 0.02715 ± 0.0013 W/m/K
499.56 K, 50302 kPa, transient hot wire | 0.06239 ± 0.0016 W/m/K
499.57 K, 419 kPa, hot wire | 0.02691 ± 0.0013 W/m/K
499.57 K, 4325 kPa, transient hot wire | 0.0351 ± 0.0022 W/m/K
499.57 K, 50305 kPa, transient hot wire | 0.06236 ± 0.0016 W/m/K
499.58 K, 3937 kPa, transient hot wire | 0.03408 ± 0.0021 W/m/K
499.58 K, 4853 kPa, transient hot wire | 0.03611 ± 0.00086 W/m/K
499.59 K, 50256 kPa, transient hot wire | 0.06271 ± 0.0016 W/m/K
499.59 K, 50258 kPa, transient hot wire | 0.06238 ± 0.0016 W/m/K
499.6 K, 218 kPa, hot wire | 0.02625 ± 0.0012 W/m/K
499.6 K, 219 kPa, hot wire | 0.0263 ± 0.0012 W/m/K
499.6 K, 3614 kPa, transient hot wire | 0.03311 ± 0.002 W/m/K
499.6 K, 4853 kPa, transient hot wire | 0.036 ± 0.00086 W/m/K
499.61 K, 35693 kPa, transient hot wire | 0.05695 ± 0.0014 W/m/K
499.61 K, 50280 kPa, transient hot wire | 0.06265 ± 0.0016 W/m/K
499.62 K, 61 kPa, hot wire | 0.02606 ± 0.0012 W/m/K and 0.02605 ± 0.0012 W/m/K
499.62 K, 5588 kPa, transient hot wire | 0.03699 ± 0.00088 W/m/K
499.62 K, 35669 kPa, transient hot wire | 0.057 ± 0.0014 W/m/K
499.62 K, 35696 kPa, transient hot wire | 0.05672 ± 0.0014 W/m/K
499.63 K, 643 kPa, hot wire | 0.02745 ± 0.0013 W/m/K
499.63 K, 3615 kPa, transient hot wire | 0.03333 ± 0.0021 W/m/K
499.63 K, 4324 kPa, transient hot wire | 0.03525 ± 0.0022 W/m/K
499.63 K, 5589 kPa, transient hot wire | 0.03717 ± 0.00088 W/m/K
499.63 K, 35672 kPa, transient hot wire | 0.05682 ± 0.0014 W/m/K
499.63 K, 50307 kPa, transient hot wire | 0.06251 ± 0.0016 W/m/K
499.64 K, 644 kPa, hot wire | 0.02725 ± 0.0013 W/m/K
499.64 K, 1595 kPa, transient hot wire | 0.0274 ± 0.0009 W/m/K
499.64 K, 3289 kPa, transient hot wire | 0.03215 ± 0.002 W/m/K
499.64 K, 4325 kPa, transient hot wire | 0.03518 ± 0.0022 W/m/K
499.64 K, 50259 kPa, transient hot wire | 0.06245 ± 0.0016 W/m/K
499.65 K, 419 kPa, hot wire | 0.02725 ± 0.0013 W/m/K
499.65 K, 1595 kPa, transient hot wire | 0.02712 ± 0.00089 W/m/K
499.65 K, 2128 kPa, transient hot wire | 0.02826 ± 0.0017 W/m/K and 0.0282 ± 0.0017 W/m/K
499.65 K, 4853 kPa, transient hot wire | 0.03633 ± 0.00086 W/m/K
499.65 K, 4854 kPa, transient hot wire | 0.03629 ± 0.00086 W/m/K
499.66 K, 418 kPa, hot wire | 0.02719 ± 0.0013 W/m/K
499.66 K, 3937 kPa, transient hot wire | 0.03435 ± 0.0021 W/m/K and 0.03413 ± 0.0021 W/m/K
499.67 K, 2953 kPa, transient hot wire | 0.0308 ± 0.0019 W/m/K
499.67 K, 35694 kPa, transient hot wire | 0.05685 ± 0.0014 W/m/K
499.68 K, 50260 kPa, transient hot wire | 0.06229 ± 0.0016 W/m/K
499.69 K, 218 kPa, hot wire | 0.02623 ± 0.0012 W/m/K and 0.0264 ± 0.0012 W/m/K
499.69 K, 5590 kPa, transient hot wire | 0.03719 ± 0.00089 W/m/K
499.69 K, 35675 kPa, transient hot wire | 0.05669 ± 0.0014 W/m/K
499.69 K, 35681 kPa, transient hot wire | 0.05715 ± 0.0014 W/m/K
499.69 K, 50252 kPa, transient hot wire | 0.06264 ± 0.0016 W/m/K
499.7 K, 60 kPa, hot wire | 0.02639 ± 0.0012 W/m/K and 0.0261 ± 0.0012 W/m/K
499.7 K, 2953 kPa, transient hot wire | 0.03112 ± 0.0019 W/m/K
